Results published in patent publication US20240148821A1, “PHARMACEUTICAL USE OF CYCLIC PEPTIDE COMPOUND” (CHUGAI SEIYAKU KABUSHIKI KAISHA, priority 2021, published 2024).
pIC50: −log10 of the molar value. Bridge positions count the residues as written; N and C are the ends. Square brackets hold non-standard residues; d marks the D form. Peptide text beside a SMILES is read from it. * marks the point of attachment. hPhe(3-Cl-4-CF3) = N[C@@H](CCc1ccc(C(F)(F)F)c(Cl)c1)C(=O)O; hPhe(3-F,4-CF3) = N[C@@H](CCc1ccc(C(F)(F)F)c(F)c1)C(=O)O; hPhe(4-CF3) = N[C@@H](CCc1ccc(C(F)(F)F)cc1)C(=O)O; NMePhe(4-Cl) = CN[C@@H](Cc1ccc(Cl)cc1)C(=O)O; NMeNle(6-CHF2) = CN[C@@H](CCCCC(F)F)C(=O)O; Leu(4,5-dehydro) = C=C(C)C[C@H](N)C(=O)O; Phe(3-I) = N[C@@H](Cc1cccc(I)c1)C(=O)O; NMeAla(cPr) = CN[C@@H](CC1CC1)C(=O)O; NMeCha = CN[C@@H](CC1CCCCC1)C(=O)O; NMeChg = CN[C@H](C(=O)O)C1CCCCC1; NMeD = CN[C@@H](CC(=O)O)C(=O)O; NMeL = CN[C@@H](CC(C)C)C(=O)O; NMehSer = CN[C@@H](CCO)C(=O)O; αMeL = CC(C)C[C@](C)(N)C(=O)O; NMeV = CN[C@H](C(=O)O)C(C)C; d(β3hA) = C[C@@H](N)CC(=O)O; NMeA = CN[C@@H](C)C(=O)O; NMeAib = CNC(C)(C)C(=O)O; Piperidide = C1CCN(*)CC1; Ac5c = NC1(C(=O)O)CCCC1; Aze = O=C(O)[C@@H]1CCN1; Aib = CC(C)(N)C(=O)O; Sar = CNCC(=O)O

tested on: Human pancreatic cancer cell line AsPC-1 (G12D mutation Kras); assay: AsPC-1 cell growth inhibition (AsPC-1 CGI); format: cell-based; settings: read-out: AsPC-1 cell growth inhibition, 50% growth inhibitory concentration (IC50 value); 96 hours, CellTiter-Glo, values classified in ranges
Experimental: Test compounds were serially dilated with dimethyl sulfoxide, and 200 nL was then dispensed to a U-bottom 96-well plate using Labcyte Echo. […] The cell suspension was dispensed to a. plate containing a test compound at 100 μL per well and incubated at 37° C. in a 5% carbon dioxide gas incubator. 96 hours later, 80 μL of CellTiter-Glo (Promega) was added to each well and fluorescence was measured.

| SMILES | pIC50 |
| --- | --- |
| C=C(C)C[C@@H]1NC(=O)[C@H](Cc2cccc(I)c2)NC(=O)CN(C)C(=O)[C@H](Cc2ccc(Cl)cc2)N(C)C(=O)[C@@H]2CCN2C(=O)[C@H](C)N(C)C(=O)[C@H]([C@@H](C)CC)NC(=O)[C@H](CC(C)C)N(C)C(=O)C[C@@H](C(=O)N2CCCCC2)N(C)C(=O)[C@H](CC(C)C)NC(=O)C(C)(C)N(C)C1=O [Compound 1429] ([NMeL]I[NMeA][Aze][NMePhe(4-Cl)][Sar][Phe(3-I)][Leu(4,5-dehydro)][NMeAib]L[NMeD]-Piperidide; lactam N-11) | < 6.30 |
| CC[C@H](C)[C@@H]1NC(=O)[C@H](CC(C)C)N(C)C(=O)C[C@@H](C)NC(=O)[C@H](C(C)C)N(C)C(=O)[C@](C)(CC(C)C)NC(=O)[C@@H]2CCCN2C(=O)[C@H](CCc2ccc(C(F)(F)F)c(Cl)c2)NC(=O)CN(C)C(=O)[C@H](CC2CCCCC2)N(C)C(=O)CN(C)C(=O)CN(C)C1=O [Compound 705] (cyclo(I[Sar][Sar][NMeCha][Sar][hPhe(3-Cl-4-CF3)]P[αMeL][NMeV][d(β3hA)][NMeL])) | < 6.30 |
| CC[C@H](C)[C@@H]1NC(=O)[C@H](CC(C)C)N(C)C(=O)C[C@@H](C(=O)N2CCCCC2)N(C)C(=O)[C@H](C(C)C)N(C)C(=O)C2(CCCC2)NC(=O)[C@@H]2CCCN2C(=O)[C@H](CCc2ccc(C(F)(F)F)c(Cl)c2)NC(=O)CN(C)C(=O)[C@H](CC2CC2)N(C)C(=O)CN(C)C(=O)CN(C)C1=O [Compound 325] ([NMeL]I[Sar][Sar][NMeAla(cPr)][Sar][hPhe(3-Cl-4-CF3)]P[Ac5c][NMeV][NMeD]-Piperidide; lactam N-11) | < 6.30 |
| CC[C@H](C)[C@@H]1NC(=O)[C@H](CC(C)C)N(C)C(=O)C[C@@H](C(=O)N2CCCCC2)N(C)C(=O)[C@H](CC(C)C)N(C)C(=O)C(C)(C)NC(=O)[C@H](CC(C)C)N(C)C(=O)[C@H](CCc2ccc(C(F)(F)F)c(F)c2)NC(=O)CN(C)C(=O)[C@H](CCCCC(F)F)N(C)C(=O)CN(C)C(=O)CN(C)C1=O [Compound 1456] ([NMeL]I[Sar][Sar][NMeNle(6-CHF2)][Sar][hPhe(3-F,4-CF3)][NMeL][Aib][NMeL][NMeD]-Piperidide; lactam N-11) | < 6.30 |
| CC[C@H](C)[C@@H]1NC(=O)[C@H](CC(C)C)N(C)C(=O)C[C@@H](C(=O)N2CCCCC2)N(C)C(=O)[C@H](CCOC)N(C)C(=O)C2(CCCC2)NC(=O)[C@@H]2CCCN2C(=O)[C@H](CCc2ccc(C(F)(F)F)c(Cl)c2)NC(=O)CN(C)C(=O)[C@H](CC2CCCCC2)N(C)C(=O)[C@@H]2CCN2C(=O)[C@H](C)N(C)C1=O [Compound 141] ([NMeL]I[NMeA][Aze][NMeCha][Sar][hPhe(3-Cl-4-CF3)]P[Ac5c][NMehSer](Me)[NMeD]-Piperidide; lactam N-11) | < 6.30 |
| CC[C@H](C)[C@@H]1NC(=O)[C@H](C(C)C)N(C)C(=O)C[C@@H](C)NC(=O)[C@H](CC(C)C)N(C)C(=O)C2(CCCC2)NC(=O)[C@H](CC(C)C)N(C)C(=O)[C@H](CCc2ccc(C(F)(F)F)cc2)NC(=O)CN(C)C(=O)[C@H](Cc2ccc(Cl)cc2)N(C)C(=O)CN(C)C(=O)[C@@H]2CCN2C1=O [Compound 538] (cyclo([Ac5c][NMeL][d(β3hA)][NMeV]I[Aze][Sar][NMePhe(4-Cl)][Sar][hPhe(4-CF3)][NMeL])) | < 6.30 |
| CC(C)C[C@H]1C(=O)N[C@@H]([C@@H](C)O)C(=O)N(C)CC(=O)N(C)CC(=O)N(C)[C@@H](CC2CCCCC2)C(=O)N(C)CC(=O)N[C@@H](CCc2ccc(C(F)(F)F)c(Cl)c2)C(=O)N2CCC[C@H]2C(=O)NC2(CCCC2)C(=O)N(C)[C@@H](C2CCCCC2)C(=O)N(C)[C@H](C(=O)N2CCCCC2)CC(=O)N1C [Compound 603] ([NMeL]T[Sar][Sar][NMeCha][Sar][hPhe(3-Cl-4-CF3)]P[Ac5c][NMeChg][NMeD]-Piperidide; lactam N-11) | < 6.30 |
